Data published in US6737383B1, “Herbicidal oxadiazolidines” (priority 1999, dated 2004).

Experiments:
wheat = test: Test B pre/postemergence wheat; type: in vivo, Triticum aestivum
Summary of the method: (§1)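 Test chemicals in a non-phytotoxic solvent mixture with surfactant were sprayed preemergence onto planted seeds and postemergence onto plants 2 to 18 cm tall (1- to 4-leaf stage). After twelve to sixteen days in a greenhouse, injury was visually rated against untreated controls from 0 (no effect) to 10 (complete control).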

giant foxtail = test: Test B pre/postemergence giant foxtail; type: in vivo, Setaria faberii
Summary of the method: as §1

crabgrass = test: Test B pre/postemergence crabgrass; type: in vivo, Digitaria sanguinalis
Summary of the method: as §1

soybean = test: Test B pre/postemergence soybean; type: in vivo, Glycine max
Summary of the method: as §1

velvetleaf = test: Test B pre/postemergence velvetleaf; type: in vivo, Abutilon theophrasti
Summary of the method: as §1

corn = test: Test B pre/postemergence corn; type: in vivo, Zea mays
Summary of the method: as §1

surinam grass = test: Test B pre/postemergence surinam grass; type: in vivo, Brachiaria decumbens
Summary of the method: as §1

bamyardgrass = test: Test B flood test barnyardgrass; type: in vivo, Echinochloa crus-galli
Summary of the method: (§2)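 Flood test on plants grown to the 2-leaf stage; treated plants kept in greenhouse twelve to sixteen days, then visually rated against controls on a 0 (no effect) to 10 (complete control) scale.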

blackgrass = test: Test B pre/postemergence blackgrass; type: in vivo, Alopecurus myosuroides
Summary of the method: as §1

pigweed = test: Test B pre/postemergence pigweed; type: in vivo, Amaranthus retroflexus
Summary of the method: as §1

rice = test: Test B flood test rice; type: in vivo, Oryza sativa
Summary of the method: as §2

wild oat = test: Test B pre/postemergence wild oat; type: in vivo, Avena fatua
Summary of the method: as §1

smallflower flatsedge = test: Test B flood test smallflower flatsedge; type: in vivo, Cyperus difformis
Summary of the method: as §2

bedstraw = test: Test B pre/postemergence bedstraw; type: in vivo, Galium aparine
Summary of the method: as §1

morningglory = test: Test B pre/postemergence morningglory; type: in vivo, Ipomoea hederacea
Summary of the method: as §1

cocklebur = test: Test B pre/postemergence cocklebur; type: in vivo, Xanthium strumarium
Summary of the method: as §1

[1] = Postemergence, Rate 62 g/ha, scale 0 to 10, 0 is no effect, 10 is complete control
[2] = Postemergence, Rate 250 g/ha, scale 0 to 10, 0 no effect, 10 complete control
[3] = Preemergence, Rate 62 g/ha, scale 0 to 10 (0 no effect, 10 complete control)
[4] = Preemergence, Rate 125 g/ha, scale 0 to 10 (0 no effect, 10 complete control)
[5] = Preemergence, Rate 250 g/ha, scale of 0 to 10 where 0 is no effect and 10 is complete control
[6] = Preemergence, Rate 500 g/ha, scale 0 (no effect) to 10 (complete control)
[7] = Rate 125 g/ha, Postemergence, scale 0 to 10, 0 no effect, 10 complete control
[8] = Rate 500 g/ha, Postemergence, scale 0 to 10, 0 no effect, 10 complete control
[9] = Rate 125 g/ha, Postemergence section (flood test species), scale 0 to 10, 0 no effect, 10 complete control
[10] = Rate 500 g/ha, listed under Postemergence (flood test species), scale 0 to 10, 0 no effect, 10 complete control
[11] = flood test, listed under Postemergence, Rate 250 g/ha, scale 0 to 10, 0 no effect, 10 complete control

Which “Wheat plant response rating” value (wheat; [1]) does the source give for Cc1cc(C)c(-n2c(=O)on(C(=O)N(c3ccc(F)cc3)C(C)C)c2=O)c(C)c1 [Compound 60] here?
Its value is 0.

What about the “Wheat plant response rating” value (wheat; [2]) of the same molecule?
Its value is 0.

What about the “Wheat plant response rating” value (wheat; [3]) of the same molecule?
The value was 0.

What about the “Plant response rating, Wheat” value (wheat; [4]) of the same molecule?
Its value is 0.

And the “Plant response rating, Wheat” value (wheat; [5])?
The value was 0.

What about the “Wheat plant response rating” value (wheat; [6]) of the same molecule?
Its value is 0.

And the “Wheat plant response rating” value (wheat; [7])?
Its value is 0.

What about the “Wheat plant response rating” value (wheat; [8]) of the same molecule?
The value was 0.

What about the “Giant foxtail plant response rating” value (giant foxtail; [1]) of the same molecule?
The value was 0.

What about the “Giant foxtail plant response rating” value (giant foxtail; [2]) of the same molecule?
The value was 0.

And the “Giant foxtail plant response rating” value (giant foxtail; [3])?
Its value is 3.

And the “Plant response rating, Giant foxtail” value (giant foxtail; [4])?
The value was 3.

What about the “Plant response rating, Giant foxtail” value (giant foxtail; [5]) of the same molecule?
The value was 4.

And the “Giant foxtail plant response rating” value (giant foxtail; [6])?
The value was 5.

And the “Giant foxtail plant response rating” value (giant foxtail; [7])?
Its value is 0.

And the “Giant foxtail plant response rating” value (giant foxtail; [8])?
The value was 0.

And the “Crabgrass plant response rating” value (crabgrass; [1])?
The value was 0.

And the “Crabgrass plant response rating” value (crabgrass; [2])?
Its value is 1.

And the “Crabgrass plant response rating” value (crabgrass; [3])?
The value was 0.

And the “Plant response rating, Crabgrass” value (crabgrass; [4])?
Its value is 1.

And the “Plant response rating, Crabgrass” value (crabgrass; [5])?
Its value is 1.

And the “Crabgrass plant response rating” value (crabgrass; [6])?
The value was 1.

What about the “Crabgrass plant response rating” value (crabgrass; [7]) of the same molecule?
The value was 0.

And the “Crabgrass plant response rating” value (crabgrass; [8])?
The value was 2.

What about the “Soybean plant response rating” value (soybean; [1]) of the same molecule?
Its value is 2.

What about the “Soybean plant response rating” value (soybean; [2]) of the same molecule?
The value was 3.

And the “Soybean plant response rating” value (soybean; [3])?
The value was 0.

What about the “Plant response rating, Soybean” value (soybean; [4]) of the same molecule?
The value was 0.

And the “Plant response rating, Soybean” value (soybean; [5])?
The value was 0.

And the “Soybean plant response rating” value (soybean; [6])?
Its value is 0.

And the “Soybean plant response rating” value (soybean; [7])?
Its value is 3.

What about the “Soybean plant response rating” value (soybean; [8]) of the same molecule?
Its value is 3.

And the “Velvetleaf plant response rating” value (velvetleaf; [1])?
Its value is 0.

And the “Velvetleaf plant response rating” value (velvetleaf; [2])?
The value was 0.

And the “Velvetleaf plant response rating” value (velvetleaf; [3])?
Its value is 0.

And the “Plant response rating, Velvetleaf” value (velvetleaf; [4])?
The value was 0.

And the “Plant response rating, Velvetleaf” value (velvetleaf; [5])?
Its value is 0.

What about the “Velvetleaf plant response rating” value (velvetleaf; [6]) of the same molecule?
Its value is 0.

And the “Velvetleaf plant response rating” value (velvetleaf; [7])?
Its value is 0.

And the “Velvetleaf plant response rating” value (velvetleaf; [8])?
The value was 0.

What about the “Corn plant response rating” value (corn; [1]) of the same molecule?
Its value is 0.

What about the “Corn plant response rating” value (corn; [2]) of the same molecule?
Its value is 0.

What about the “Corn plant response rating” value (corn; [3]) of the same molecule?
The value was 0.

What about the “Plant response rating, Corn” value (corn; [4]) of the same molecule?
The value was 0.

What about the “Plant response rating, Corn” value (corn; [5]) of the same molecule?
Its value is 0.

What about the “Corn plant response rating” value (corn; [6]) of the same molecule?
The value was 0.

And the “Corn plant response rating” value (corn; [7])?
The value was 0.

What about the “Corn plant response rating” value (corn; [8]) of the same molecule?
The value was 0.

What about the “B. signalgrass plant response rating” value (surinam grass; [1]) of the same molecule?
The value was 0.

What about the “B. signalgrass plant response rating” value (surinam grass; [2]) of the same molecule?
The value was 0.

And the “B. signalgrass plant response rating” value (surinam grass; [3])?
Its value is 0.

And the “Plant response rating, B. signalgrass” value (surinam grass; [4])?
Its value is 0.

And the “Plant response rating, B. signalgrass” value (surinam grass; [5])?
Its value is 0.

And the “B. signalgrass plant response rating” value (surinam grass; [6])?
Its value is 0.

And the “B. signalgrass plant response rating” value (surinam grass; [7])?
The value was 0.

And the “B. signalgrass plant response rating” value (surinam grass; Rate 500 g/ha, Postemergence, scale of 0 to 10 where 0 is no effect and 10 is complete control)?
The value was 0.

What about the “Barnyardgrass plant response rating” value (bamyardgrass; [1]) of the same molecule?
The value was 0.

What about the “Barnyardgrass plant response rating” value (bamyardgrass; [9]) of the same molecule?
The value was 0.

And the “Barnyardgrass plant response rating” value (bamyardgrass; [10])?
Its value is 0.

What about the “Barnyardgrass plant response rating” value (bamyardgrass; [11]) of the same molecule?
Its value is 0.

And the “Blackgrass plant response rating” value (blackgrass; [1])?
The value was 0.

What about the “Blackgrass plant response rating” value (blackgrass; [2]) of the same molecule?
Its value is 0.

What about the “Blackgrass plant response rating” value (blackgrass; [3]) of the same molecule?
The value was 0.

What about the “Plant response rating, Blackgrass” value (blackgrass; [4]) of the same molecule?
Its value is 0.

And the “Plant response rating, Blackgrass” value (blackgrass; [5])?
The value was 0.

What about the “Blackgrass plant response rating” value (blackgrass; [6]) of the same molecule?
The value was 0.

What about the “Blackgrass plant response rating” value (blackgrass; [7]) of the same molecule?
The value was 0.

What about the “Blackgrass plant response rating” value (blackgrass; [8]) of the same molecule?
The value was 0.

And the “Redroot pigweed plant response rating” value (pigweed; [1])?
Its value is 2.

What about the “Redroot pigweed plant response rating” value (pigweed; [2]) of the same molecule?
Its value is 4.

What about the “Redroot pigweed plant response rating” value (pigweed; [3]) of the same molecule?
The value was 0.

What about the “Plant response rating, Redroot pigweed” value (pigweed; [4]) of the same molecule?
Its value is 0.

And the “Plant response rating, Redroot pigweed” value (pigweed; [5])?
The value was 0.

What about the “Redroot pigweed plant response rating” value (pigweed; [6]) of the same molecule?
The value was 0.

And the “Redroot pigweed plant response rating” value (pigweed; [7])?
The value was 4.

What about the “Redroot pigweed plant response rating” value (pigweed; [8]) of the same molecule?
Its value is 6.

What about the “Rice plant response rating” value (rice; [1]) of the same molecule?
The value was 0.

And the “Rice plant response rating” value (rice; [9])?
The value was 0.

What about the “Rice plant response rating” value (rice; [10]) of the same molecule?
Its value is 0.

What about the “Rice plant response rating” value (rice; [11]) of the same molecule?
Its value is 0.

What about the “Wild oats plant response rating” value (wild oat; [1]) of the same molecule?
The value was 0.

What about the “Wild oats plant response rating” value (wild oat; [2]) of the same molecule?
Its value is 0.

What about the “Wild oats plant response rating” value (wild oat; [3]) of the same molecule?
The value was 0.

And the “Plant response rating, Wild oats” value (wild oat; [4])?
Its value is 0.

And the “Plant response rating, Wild oats” value (wild oat; [5])?
Its value is 0.

And the “Wild oats plant response rating” value (wild oat; [6])?
The value was 0.

And the “Wild oats plant response rating” value (wild oat; [7])?
The value was 0.

And the “Wild oats plant response rating” value (wild oat; [8])?
The value was 0.

And the “S. Flatsedge plant response rating” value (smallflower flatsedge; [1])?
Its value is 0.

And the “S. Flatsedge plant response rating” value (smallflower flatsedge; [9])?
Its value is 0.

What about the “S. Flatsedge plant response rating” value (smallflower flatsedge; [10]) of the same molecule?
The value was 0.

And the “S. Flatsedge plant response rating” value (smallflower flatsedge; [11])?
Its value is 0.

What about the “Bedstraw plant response rating” value (bedstraw; [2]) of the same molecule?
Its value is 7.

What about the “Bedstraw plant response rating” value (bedstraw; [3]) of the same molecule?
The value was 0.

What about the “Plant response rating, Bedstraw” value (bedstraw; [4]) of the same molecule?
The value was 0.

What about the “Plant response rating, Bedstraw” value (bedstraw; [5]) of the same molecule?
The value was 0.

And the “Bedstraw plant response rating” value (bedstraw; [6])?
The value was 5.

What about the “Bedstraw plant response rating” value (bedstraw; [7]) of the same molecule?
The value was 7.

And the “Bedstraw plant response rating” value (bedstraw; [8])?
The value was 7.

And the “Morningglory plant response rating” value (morningglory; [1])?
Its value is 1.

What about the “Morningglory plant response rating” value (morningglory; [2]) of the same molecule?
Its value is 2.

What about the “Morningglory plant response rating” value (morningglory; [3]) of the same molecule?
The value was 0.

And the “Plant response rating, Morningglory” value (morningglory; [4])?
Its value is 0.

And the “Plant response rating, Morningglory” value (morningglory; [5])?
Its value is 0.

And the “Morningglory plant response rating” value (morningglory; [6])?
Its value is 0.

What about the “Morningglory plant response rating” value (morningglory; [7]) of the same molecule?
Its value is 2.

What about the “Morningglory plant response rating” value (morningglory; [8]) of the same molecule?
The value was 2.

What about the “Cocklebur plant response rating” value (cocklebur; [1]) of the same molecule?
Its value is 0.

What about the “Cocklebur plant response rating” value (cocklebur; [2]) of the same molecule?
Its value is 0.

What about the “Cocklebur plant response rating” value (cocklebur; [3]) of the same molecule?
Its value is 0.

What about the “Plant response rating, Cocklebur” value (cocklebur; [4]) of the same molecule?
Its value is 0.

And the “Cocklebur plant response rating” value (cocklebur; [7])?
Its value is 0.

What about the “Cocklebur plant response rating” value (cocklebur; [8]) of the same molecule?
Its value is 0.
